Experimental data taken from the supplement of paper PMC4862054.

Key:
MFM-223 [1] = test: normalised viability (% of control), CellTiter-Blue; higher = more viable cells (about 100 = DMSO control); details: incubation time: 72 h
How it was run: (§1)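 Vehicle (100) and a positive kill control (0) anchored the normalisation of each plate, and Z'-factor was used for quality control. Breast cancer cell lines in 20 µl suspension were incubated 72 h over compound in 5 µl medium in 384-well plates, followed by CellTiter-Blue at 560/590 nm. The value is normalised viability at a single listed concentration of the series.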

HCC1937 [2] = test: as above; details: incubation time: 72 h
How it was run: as §1

MDA-MB-231 [3] = test: as above; details: incubation time: 72 h
How it was run: as §1

MDA-MB-468 [4] = test: as above; details: incubation time: 72 h
How it was run: as §1

MDA-MB-436 [5] = test: as above; details: incubation time: 72 h
How it was run: as §1

CAL-120 [6] = test: as above; details: incubation time: 72 h
How it was run: as §1

MDA-MB-453 [7] = test: as above; details: incubation time: 72 h
How it was run: as §1

SK-BR-3 [8] = test: as above; details: incubation time: 72 h
How it was run: as §1

BT-474 [9] = test: as above; details: incubation time: 72 h
How it was run: as §1

HDQ-P1 [10] = test: as above; details: incubation time: 72 h
How it was run: as §1

CAL-148 [11] = test: as above; details: incubation time: 72 h
How it was run: as §1

Hs578T [12] = test: as above; details: incubation time: 72 h
How it was run: as §1

HCC1143 [13] = test: as above; details: incubation time: 72 h
How it was run: as §1

BT-549 [14] = test: as above; details: incubation time: 72 h
How it was run: as §1

HCC1599 [15] = test: as above; details: incubation time: 72 h
How it was run: as §1

CAL-85-1 [16] = test: as above; details: incubation time: 72 h
How it was run: as §1

DU-4475 [17] = test: as above; details: incubation time: 72 h
How it was run: as §1

CAL-51 [18] = test: as above; details: incubation time: 72 h
How it was run: as §1

MFM-223 [19] = test: normalised viability (% of control), CellTiter-Blue; higher = more viable cells (about 100 = DMSO control); details: 50 nM; incubation time: 72 h
Description: (§2)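 DSRT, CellTiter-Blue viability, 72 h incubation. Signal is normalised to DMSO and benzethonium chloride controls. Value is the normalised response at dose 3.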

HCC1937 [20] = test: as above; details: 50 nM; incubation time: 72 h
Description: as §2

MDA-MB-231 [21] = test: as above; details: 50 nM; incubation time: 72 h
Description: as §2

MDA-MB-468 [22] = test: as above; details: 50 nM; incubation time: 72 h
Description: as §2

MDA-MB-436 [23] = test: as above; details: 50 nM; incubation time: 72 h
Description: as §2

CAL-120 [24] = test: as above; details: 50 nM; incubation time: 72 h
Description: as §2

MDA-MB-453 [25] = test: as above; details: 5 nM; incubation time: 72 h
Description: as §2

SK-BR-3 [26] = test: as above; details: 50 nM; incubation time: 72 h
Description: as §2

BT-474 [27] = test: as above; details: 50 nM; incubation time: 72 h
Description: as §2

HDQ-P1 [28] = test: as above; details: 5 nM; incubation time: 72 h
Description: as §2

CAL-148 [29] = test: as above; details: 5 nM; incubation time: 72 h
Description: as §2

Hs578T [30] = test: as above; details: 50 nM; incubation time: 72 h
Description: as §2

HCC1143 [31] = test: as above; details: 50 nM; incubation time: 72 h
Description: as §2

BT-549 [32] = test: as above; details: 50 nM; incubation time: 72 h
Description: as §2

HCC1599 [33] = test: as above; details: 50 nM; incubation time: 72 h
Description: as §2

CAL-85-1 [34] = test: as above; details: 5 nM; incubation time: 72 h
Description: as §2

DU-4475 [35] = test: as above; details: 5 nM; incubation time: 72 h
Description: as §2

CAL-51 [36] = test: as above; details: 5 nM; incubation time: 72 h
Description: as §2

MFM-223 [37] = test: normalised viability (% of control), CellTiter-Blue; higher = more viable cells (100 = DMSO, 0 = benzethonium chloride kill control); details: incubation time: 72 h
Description: (§3)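 DSRT, CellTiter-Blue viability, 72 h incubation. Signal is normalised to DMSO and benzethonium chloride controls. Value is the normalised response at dose 1.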

HCC1937 [38] = test: as above; details: incubation time: 72 h
Description: as §3

MDA-MB-231 [39] = test: as above; details: incubation time: 72 h
Description: as §3

MDA-MB-468 [40] = test: as above; details: incubation time: 72 h
Description: as §3

MDA-MB-436 [41] = test: as above; details: incubation time: 72 h
Description: as §3

CAL-120 [42] = test: as above; details: incubation time: 72 h
Description: as §3

MDA-MB-453 [43] = test: as above; details: incubation time: 72 h
Description: as §3

SK-BR-3 [44] = test: as above; details: incubation time: 72 h
Description: as §3

BT-474 [45] = test: as above; details: incubation time: 72 h
Description: as §3

HDQ-P1 [46] = test: as above; details: incubation time: 72 h
Description: as §3

CAL-148 [47] = test: as above; details: incubation time: 72 h
Description: as §3

Hs578T [48] = test: as above; details: incubation time: 72 h
Description: as §3

HCC1143 [49] = test: as above; details: incubation time: 72 h
Description: as §3

BT-549 [50] = test: as above; details: incubation time: 72 h
Description: as §3

HCC1599 [51] = test: as above; details: incubation time: 72 h
Description: as §3

CAL-85-1 [52] = test: as above; details: incubation time: 72 h
Description: as §3

DU-4475 [53] = test: as above; details: incubation time: 72 h
Description: as §3

CAL-51 [54] = test: as above; details: incubation time: 72 h
Description: as §3

CC[C@@]1(O)C(=O)OCc2c1cc1n(c2=O)Cc2cc3ccccc3nc2-1 [Camptothecin]
normalised viability (MFM-223 [1]; 5 nM): 108% | normalised viability (MFM-223 [1]; 500 nM): 79.8% | normalised viability (MFM-223 [1]; 5000 nM): 32.3% | normalised viability (HCC1937 [2]; 5 nM): 92.6% | normalised viability (HCC1937 [2]; 500 nM): 29.6% | normalised viability (HCC1937 [2]; 5000 nM): 25.5% | normalised viability (MDA-MB-231 [3]; 5 nM): 98% | normalised viability (MDA-MB-231 [3]; 500 nM): 51.8% | normalised viability (MDA-MB-231 [3]; 5000 nM): 22.6% | normalised viability (MDA-MB-468 [4]; 5 nM): 93% | normalised viability (MDA-MB-468 [4]; 500 nM): 12.1% | normalised viability (MDA-MB-468 [4]; 5000 nM): 6.62% | normalised viability (MDA-MB-436 [5]; 5 nM): 97% | normalised viability (MDA-MB-436 [5]; 500 nM): 31.2% | normalised viability (MDA-MB-436 [5]; 5000 nM): 10.3% | normalised viability (CAL-120 [6]; 5 nM): 81.5% | normalised viability (CAL-120 [6]; 500 nM): 22.6% | normalised viability (CAL-120 [6]; 5000 nM): 10.3% | normalised viability (MDA-MB-453 [7]; 1.5 nM): 114% | normalised viability (MDA-MB-453 [7]; 15 nM): 105% | normalised viability (MDA-MB-453 [7]; 50 nM): 77.4% | normalised viability (SK-BR-3 [8]; 5 nM): 100% | normalised viability (SK-BR-3 [8]; 500 nM): 20.6% | normalised viability (SK-BR-3 [8]; 5000 nM): 8% | normalised viability (BT-474 [9]; 5 nM): 101% | normalised viability (BT-474 [9]; 500 nM): 69.9% | normalised viability (BT-474 [9]; 5000 nM): 60.3% | normalised viability (HDQ-P1 [10]; 1.5 nM): 90.7% | normalised viability (HDQ-P1 [10]; 15 nM): 83.2% | normalised viability (HDQ-P1 [10]; 50 nM): 65.9% | normalised viability (CAL-148 [11]; 1.5 nM): 102% | normalised viability (CAL-148 [11]; 15 nM): 47.9% | normalised viability (CAL-148 [11]; 50 nM): 30.9% | normalised viability (Hs578T [12]; 5 nM): 112% | normalised viability (Hs578T [12]; 500 nM): 59.6% | normalised viability (Hs578T [12]; 5000 nM): 11.5% | normalised viability (HCC1143 [13]; 5 nM): 78.3% | normalised viability (HCC1143 [13]; 500 nM): 33.5% | normalised viability (HCC1143 [13]; 5000 nM): 22.9% | normalised viability (BT-549 [14]; 5 nM): 82.1% | normalised viability (BT-549 [14]; 500 nM): 39.3% | normalised viability (BT-549 [14]; 5000 nM): 20.7% | normalised viability (HCC1599 [15]; 5 nM): 108% | normalised viability (HCC1599 [15]; 500 nM): 60.1% | normalised viability (HCC1599 [15]; 5000 nM): 29.5% | normalised viability (CAL-85-1 [16]; 1.5 nM): 98% | normalised viability (CAL-85-1 [16]; 15 nM): 87.3% | normalised viability (CAL-85-1 [16]; 50 nM): 74.8% | normalised viability (DU-4475 [17]; 1.5 nM): 117% | normalised viability (DU-4475 [17]; 15 nM): 60.2% | normalised viability (DU-4475 [17]; 50 nM): 44.7% | normalised viability (CAL-51 [18]; 1.5 nM): 103% | normalised viability (CAL-51 [18]; 15 nM): 57% | normalised viability (CAL-51 [18]; 50 nM): 31.1% | normalised viability (MFM-223 [19]): 93.8% | normalised viability (HCC1937 [20]): 45.8% | normalised viability (MDA-MB-231 [21]): 78.9% | normalised viability (MDA-MB-468 [22]): 46.8% | normalised viability (MDA-MB-436 [23]): 87.9% | normalised viability (CAL-120 [24]): 65.5% | normalised viability (MDA-MB-453 [25]): 103% | normalised viability (SK-BR-3 [26]): 49.7% | normalised viability (BT-474 [27]): 90.8% | normalised viability (HDQ-P1 [28]): 99.4% | normalised viability (CAL-148 [29]): 70.3% | normalised viability (Hs578T [30]): 81.8% | normalised viability (HCC1143 [31]): 50.9% | normalised viability (BT-549 [32]): 67.3% | normalised viability (HCC1599 [33]): 90.2% | normalised viability (CAL-85-1 [34]): 93.7% | normalised viability (DU-4475 [35]): 82.2% | normalised viability (CAL-51 [36]): 99%

O=P(O)(NCCCl)NCCCl [Ifosfamide mustard] (1 nM)
normalised viability (MFM-223 [37]): 94.9% | normalised viability (HCC1937 [38]): 92.3% | normalised viability (MDA-MB-231 [39]): 101% | normalised viability (MDA-MB-468 [40]): 101% | normalised viability (MDA-MB-436 [41]): 110% | normalised viability (CAL-120 [42]): 82.2% | normalised viability (MDA-MB-453 [43]): 109% | normalised viability (SK-BR-3 [44]): 91.8% | normalised viability (BT-474 [45]): 113% | normalised viability (HDQ-P1 [46]): 88.6% | normalised viability (CAL-148 [47]): 111% | normalised viability (Hs578T [48]): 116% | normalised viability (HCC1143 [49]): 97.4% | normalised viability (BT-549 [50]): 102% | normalised viability (HCC1599 [51]): 109% | normalised viability (CAL-85-1 [52]): 85.5% | normalised viability (DU-4475 [53]): 106% | normalised viability (CAL-51 [54]): 108%
